Assay results: patent US9012398B2, “Acylated exendin-4 compounds” (priority 2006, dated 2015)
Like-named read-outs stand apart in the source and are kept apart here. Starred links: 1 amine or outer side, 2 acyl side, 3 side chain; linkers in the order of their positions; H or OH if unused. Residues, ends and D or L forms follow the SMILES beside them. Groups on a side chain read outwards from the residue. *: point of attachment. C18 diacid = O=C(O)CCCCCCCCCCCCCCCCC(=O)*; γGlu = O=C(O)[C@H](CCC(=O)[*:2])N[*:1]; Stearoyl = CCCCCCCCCCCCCCCCCC(=O)*; Palmitoyl = CCCCCCCCCCCCCCCC(=O)*; AEEA = NCCOCCOCC(=O)O

Target: T1, human GLP-1 receptor (Homo sapiens, UniProt P43220)
T1 construct: expressed in transfected cells; host or cells: BHK cells, clone BHK-467-12A; plasma membrane preparation
T1 sequence (P43220 24-463): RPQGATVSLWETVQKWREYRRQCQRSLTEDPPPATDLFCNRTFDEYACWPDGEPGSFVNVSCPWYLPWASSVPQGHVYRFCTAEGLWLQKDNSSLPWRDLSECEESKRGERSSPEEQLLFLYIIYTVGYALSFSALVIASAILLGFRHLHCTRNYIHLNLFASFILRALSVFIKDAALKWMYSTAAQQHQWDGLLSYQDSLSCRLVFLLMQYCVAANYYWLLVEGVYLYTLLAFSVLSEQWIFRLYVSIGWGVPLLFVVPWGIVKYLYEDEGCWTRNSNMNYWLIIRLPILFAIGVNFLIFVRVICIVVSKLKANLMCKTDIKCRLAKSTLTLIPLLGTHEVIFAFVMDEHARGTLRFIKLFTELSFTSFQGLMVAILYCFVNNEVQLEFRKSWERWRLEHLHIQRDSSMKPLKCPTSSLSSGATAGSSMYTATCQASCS
Experiment: Functional receptor assay: cAMP formation in plasma membranes of BHK cells expressing the cloned human GLP-1 receptor (GLP1cAMPma)
Type: biochemical
Method: The term “insulinotropic agent” as used herein means a compound which is an agonist of the human GLP-1 receptor, i.e. a compound which stimulates the formation of cAMP in a suitable medium containing the human GLP-1 receptor (one such medium disclosed below). The potency of an insulinotropic agent is determined by calculating the EC50 value from the dose-response curve as described below.
The cells were washed twice in phosphate buffered saline and harvested with Versene. Plasma membranes were prepared from the cells by homogenisation with an Ultraturrax in buffer 1 (20 mM HEPES-Na, 10 mM EDTA, pH 7.4). The homogenate was centrifuged at 48,000×g for 15 min at 4° C. The pellet was suspended by homogenization in buffer 2 (20 mM HEPES-Na, 0.1 mM EDTA, pH 7.4), then centrifuged at 48,000×g for 15 min at 4° C. The washing procedure was repeated one more time. The final pellet was suspended in buffer 2 and used immediately for assays or stored at −80° C.
The functional receptor assay was carried out by measuring cyclic AMP (cAMP) as a response to stimulation by the insulinotropic agent. cAMP formed was quantified by the AlphaScreen™ cAMP Kit (Perkin Elmer Life Sciences). Incubations were carried out in half-area 96-well microtiter plates in a total volume of 50 μL buffer 3 (50 mM Tris-HCl, 5 mM HEPES, 10 mM MgCl2, pH 7.4) and with the following additions: 1 mM ATP, 1 μM GTP, 0.5 mM 3-isobutyl-1-methylxanthine (IBMX), 0.01% Tween-20, 0.1% BSA, 6 μg membrane preparation, 15 μg/mL acceptor beads, 20 μg/mL donor beads preincubated with 6 nM biotinyl-cAMP. […] GTP was freshly prepared for each experiment. The plate was incubated in the dark with slow agitation for three hours at room temperature followed by counting in the Fusion™ instrument (Perkin Elmer Life Sciences). Concentration-response curves were plotted for the individual compounds and EC50 values estimated using a four-parameter logistic model with Prism v. 4.0 (GraphPad, Carlsbad, Calif.).

[1] = cAMP, membranes with human GLP-1 receptor, mean value, read-out: GLP1cAMPma (3693) [EC50 (nM)] Mean Value

| SMILES | EC50 [1] [nM] | EC50 [nM] |
| --- | --- | --- |
| CC[C@H](C)[C@H](NC(=O)[C@H](Cc1ccccc1)NC(=O)[C@H](CC(C)C)NC(=O)[C@H](CCCCNC(=O)COCCOCCNC(=O)COCCOCCNC(=O)CCCCCCCCCCCCCCCCC(=O)O)NC(=O)[C@@H](NC(=O)[C@H](C)NC(=O)[C@H](CCC(=O)O)NC(=O)[C@H](CCC(=O)O)NC(=O)[C@H](CCC(=O)O)NC(=O)[C@H](CC(C)C)NC(=O)[C@H](CCC(N)=O)NC(=O)[C@H](CCCNC(=N)N)NC(=O)[C@H](CO)NC(=O)[C@H](CC(C)C)NC(=O)[C@H](CC(=O)O)NC(=O)[C@H](CO)NC(=O)[C@@H](NC(=O)[C@H](Cc1ccccc1)NC(=O)[C@@H](NC(=O)CNC(=O)[C@H](CCC(=O)O)NC(=O)CNC(=O)[C@@H](N)Cc1c[nH]cn1)[C@@H](C)O)[C@@H](C)O)C(C)C)C(=O)N[C@@H](CCC(=O)O)C(=O)N[C@@H](Cc1c[nH]c2ccccc12)C(=O)N[C@@H](CC(C)C)C(=O)N[C@@H](CCCNC(=N)N)C(=O)N[C@@H](CCC(N)=O)C(=O)NCC(=O)NCC(=O)N1CCC[C@H]1C(=O)N[C@@H](CO)C(=O)N[C@@H](CO)C(=O)NCC(=O)N[C@@H](C)C(=O)N1CCC[C@H]1C(=O)N1CCC[C@H]1C(=O)N1CCC[C@H]1C(=O)N[C@@H](CO)C(N)=O [Example 12, N-ε^20-(2-(2-(2-(2-(2-(2-(17-carboxyheptadecanoylamino)ethoxy)ethoxy)acetylamino)ethoxy)ethoxy)acetyl)[Arg12,Leu^14,Arg^27,Gln^28,Lys^20]Exendin-4 (1-39)amide] (H-HGEGTFTSDLSRQLEEEAVK([AEEA-AEEA-C18 diacid])LFIEWLRQGGPSSGAPPPS-NH2; N-terminus assumed) | 5.45 | – |
| CCCCCCCCCCCCCCCCCC(=O)N[C@@H](CCC(=O)NCCOCCOCC(=O)NCCOCCOCC(=O)NCCCC[C@H](NC(=O)[C@@H](NC(=O)[C@H](C)NC(=O)[C@H](CCC(=O)O)NC(=O)[C@H](CCC(=O)O)NC(=O)[C@H](CCC(=O)O)NC(=O)[C@H](CC(C)C)NC(=O)[C@H](CCC(N)=O)NC(=O)[C@H](CCCNC(=N)N)NC(=O)[C@H](CO)NC(=O)[C@H](CC(C)C)NC(=O)[C@H](CC(=O)O)NC(=O)[C@H](CO)NC(=O)[C@@H](NC(=O)[C@H](Cc1ccccc1)NC(=O)[C@@H](NC(=O)CNC(=O)[C@H](CCC(=O)O)NC(=O)CNC(=O)[C@@H](N)Cc1c[nH]cn1)[C@@H](C)O)[C@@H](C)O)C(C)C)C(=O)N[C@@H](CC(C)C)C(=O)N[C@@H](Cc1ccccc1)C(=O)N[C@H](C(=O)N[C@@H](CCC(=O)O)C(=O)N[C@@H](Cc1c[nH]c2ccccc12)C(=O)N[C@@H](CC(C)C)C(=O)N[C@@H](CCCNC(=N)N)C(=O)N[C@@H](CCC(N)=O)C(=O)NCC(=O)NCC(=O)N1CCC[C@H]1C(=O)N[C@@H](CO)C(=O)N[C@@H](CO)C(=O)NCC(=O)N[C@@H](C)C(=O)N1CCC[C@H]1C(=O)N1CCC[C@H]1C(=O)N1CCC[C@H]1C(=O)N[C@@H](CO)C(N)=O)[C@@H](C)CC)C(=O)O [Example 15] (H-HGEGTFTSDLSRQLEEEAVK([AEEA-AEEA-γGlu-Stearoyl])LFIEWLRQGGPSSGAPPPS-NH2) | 0.044 | – |
| CCCCCCCCCCCCCCCCCC(=O)N[C@@H](CCC(=O)NCCOCCOCC(=O)NCCOCCOCC(=O)NCCCC[C@H](NC(=O)[C@@H]1CCCN1C(=O)CNC(=O)CNC(=O)[C@H](CCCNC(=N)N)NC(=O)[C@@H](NC(=O)[C@H](CC(C)C)NC(=O)[C@H](Cc1c[nH]c2ccccc12)NC(=O)[C@H](CCC(=O)O)NC(=O)[C@@H](NC(=O)[C@H](Cc1ccccc1)NC(=O)[C@H](CC(C)C)NC(=O)[C@H](CCCNC(=N)N)NC(=O)[C@@H](NC(=O)[C@H](C)NC(=O)[C@H](CCC(=O)O)NC(=O)[C@H](CCC(=O)O)NC(=O)[C@H](CCC(=O)O)NC(=O)[C@H](CC(C)C)NC(=O)[C@H](CCC(N)=O)NC(=O)[C@H](CCCNC(=N)N)NC(=O)[C@H](CO)NC(=O)[C@H](CC(C)C)NC(=O)[C@H](CC(=O)O)NC(=O)[C@H](CO)NC(=O)[C@@H](NC(=O)[C@H](Cc1ccccc1)NC(=O)[C@@H](NC(=O)CNC(=O)[C@H](CCC(=O)O)NC(=O)CNC(=O)[C@@H](N)Cc1c[nH]cn1)[C@@H](C)O)[C@@H](C)O)C(C)C)[C@@H](C)CC)C(C)C)C(=O)N[C@@H](CO)C(=O)NCC(=O)N[C@@H](C)C(=O)N1CCC[C@H]1C(=O)N1CCC[C@H]1C(=O)N1CCC[C@H]1C(=O)N[C@@H](CO)C(N)=O)C(=O)O [Example 17, N-ε^32-(2-(2-(2-(2-(2-(2-(4-(Octadecanoylamino)-4(S)-carboxybutyrylamino))ethoxy)ethoxy)acetylamino)ethoxy)ethoxy)acetyl[Arg^12,Leu^14,Val^27,Arg^28,Lys^32]Exendin-4-(1-39)amide] (H-HGEGTFTSDLSRQLEEEAVRLFIEWLVRGGPK([AEEA-AEEA-γGlu-Stearoyl])SGAPPPS-NH2; N-terminus assumed) | – | 0.025 |
| CCCCCCCCCCCCCCCC(=O)N[C@@H](CCC(=O)NCCOCCOCC(=O)NCCOCCOCC(=O)NCCCC[C@H](NC(=O)[C@@H](NC(=O)[C@H](C)NC(=O)[C@H](CCC(=O)O)NC(=O)[C@H](CCC(=O)O)NC(=O)[C@H](CCC(=O)O)NC(=O)[C@H](CC(C)C)NC(=O)[C@H](CCC(N)=O)NC(=O)[C@H](CCCNC(=N)N)NC(=O)[C@H](CO)NC(=O)[C@H](CC(C)C)NC(=O)[C@H](CC(=O)O)NC(=O)[C@H](CO)NC(=O)[C@@H](NC(=O)[C@H](Cc1ccccc1)NC(=O)[C@@H](NC(=O)CNC(=O)[C@H](CCC(=O)O)NC(=O)CNC(=O)[C@@H](N)Cc1c[nH]cn1)[C@@H](C)O)[C@@H](C)O)C(C)C)C(=O)N[C@@H](CC(C)C)C(=O)N[C@@H](Cc1ccccc1)C(=O)N[C@H](C(=O)N[C@@H](CCC(=O)O)C(=O)N[C@@H](Cc1c[nH]c2ccccc12)C(=O)N[C@@H](CC(C)C)C(=O)N[C@@H](CCCNC(=N)N)C(=O)N[C@@H](CCC(N)=O)C(=O)NCC(=O)NCC(=O)N1CCC[C@H]1C(=O)N[C@@H](CO)C(=O)N[C@@H](CO)C(=O)NCC(=O)N[C@@H](C)C(=O)N1CCC[C@H]1C(=O)N1CCC[C@H]1C(=O)N1CCC[C@H]1C(=O)N[C@@H](CO)C(N)=O)[C@@H](C)CC)C(=O)O [Example 18, N-ε^20-2-(2-(2-(2-(2-(2-(4-(Hexadecanoylamino)-4(S)-carboxybutyrylamino)ethoxy)ethoxy)acetylamino)ethoxy)ethoxy)acetyl[Arg^12,27,Leu^14,Lys^20,Gln^28]Exendin-4-(1-39)-peptide amide] (H-HGEGTFTSDLSRQLEEEAVK([AEEA-AEEA-γGlu-Palmitoyl])LFIEWLRQGGPSSGAPPPS-NH2; N-terminus assumed) | 0.033 | – |
| CC[C@H](C)[C@H](NC(=O)[C@H](Cc1ccccc1)NC(=O)[C@H](CC(C)C)NC(=O)[C@H](CCCNC(=N)N)NC(=O)[C@@H](NC(=O)[C@H](C)NC(=O)[C@H](CCC(=O)O)NC(=O)[C@H](CCC(=O)O)NC(=O)[C@H](CCC(=O)O)NC(=O)[C@H](CCCCNC(=O)COCCOCCNC(=O)COCCOCCNC(=O)CCCCCCCCCCCCCCCCC(=O)O)NC(=O)[C@H](CCC(N)=O)NC(=O)[C@H](CCCNC(=N)N)NC(=O)[C@H](CO)NC(=O)[C@H](CC(C)C)NC(=O)[C@H](CC(=O)O)NC(=O)[C@H](CO)NC(=O)[C@@H](NC(=O)[C@H](Cc1ccccc1)NC(=O)[C@@H](NC(=O)CNC(=O)[C@H](CCC(=O)O)NC(=O)CNC(=O)[C@@H](N)Cc1c[nH]cn1)[C@@H](C)O)[C@@H](C)O)C(C)C)C(=O)N[C@@H](CCC(=O)O)C(=O)N[C@@H](Cc1c[nH]c2ccccc12)C(=O)N[C@@H](CC(C)C)C(=O)N[C@H](C(=O)N[C@@H](CCCNC(=N)N)C(=O)NCC(=O)NCC(=O)N1CCC[C@H]1C(=O)N[C@@H](CO)C(=O)N[C@@H](CO)C(=O)NCC(=O)N[C@@H](C)C(=O)N1CCC[C@H]1C(=O)N1CCC[C@H]1C(=O)N1CCC[C@H]1C(=O)N[C@@H](CO)C(N)=O)C(C)C [Example 27] (H-HGEGTFTSDLSRQK([AEEA-AEEA-C18 diacid])EEEAVRLFIEWLVRGGPSSGAPPPS-NH2; N-terminus assumed) | 3.65 | – |
